Measurements reported in patent US8232059B2, “Method of identifying A. baumannii with OXA-131-like drug resistance in diabetic patients” (priority 2010, dated 2012).
Converted amounts (≈) assume the structure as drawn.

System: A. baumannii isolates
Experiment: MICs (minimum inhibitory concentrations) for susceptibility to known antibiotics, British Society for Antimicrobial Chemotherapy guidelines
Type: cell-based, Acinetobacter baumannii
Settings: 20 clinical isolates from diabetic patients; for MIC: Acinetobacter baumannii
Description: All twenty isolates were further tested for MICs (minimum inhibitory concentrations) for susceptibility to several known antibiotics using the British Society for Antimicrobial Chemotherapy guidelines.

Compound | % resistance [%] | MIC range [µg/mL] | No. of resistant isolates | susceptibility/resistance of the isolates in words | MIC [µg/mL]
Colistin | 0 | 0.25 to 0.5 | 0 | susceptible | 
C[C@@H](O)[C@H]1C(=O)N2C(C(=O)O)=C(SCCN=CN)C[C@H]12 [Imipenem] | 0 |  | 0 |  | 0.25 to 2 (≈ 0.835 to 6.68 µM)
CCn1cc(C(=O)O)c(=O)c2ccc(C)nc21 [Nalidixic Acid] | 75 |  | 15 | majority was also resistant | 
C[C@@H](O)[C@H]1C(=O)N2C(C(=O)O)=C(S[C@@H]3CN[C@H](C(=O)Nc4cccc(C(=O)O)c4)C3)[C@H](C)[C@H]12 [Ertapenem] | 100 |  | 20 | highly resistant | 4 to 64 (≈ 8.41 to 135 µM)
CC1COc2c(N3CCN(C)CC3)c(F)cc3c(=O)c(C(=O)O)cn1c23 (stereo not shown) [Ofloxacin] | 70 |  | 14 |  | 1 to 32 (≈ 2.77 to 88.6 µM)
Cc1onc(-c2ccccc2)c1C(=O)N[C@@H]1C(=O)N2[C@@H]1SC(C)(C)[C@@H]2C(=O)O [Oxacillin] | 100 |  | 20 | highly resistant | > 128
CC1(C)[C@H](C(=O)O)N2C(=O)C[C@H]2S1(=O)=O [Sulbactam] | 100 |  | 20 | highly resistant | 
C[C@@H](O)[C@H]1C(=O)N2C(C(=O)O)=C(S[C@@H]3CN[C@H](C(=O)N(C)C)C3)[C@H](C)[C@H]12 [Meropenem] | 20 |  | 4 | all but four isolates (which had low-level resistance) were susceptible | 4 to 8 (≈ 10.4 to 20.9 µM)
O=C(N[C@H](CO)[C@H](O)c1ccc([N+](=O)[O-])cc1)C(Cl)Cl [Chloramphenicol] | 100 |  | 20 | highly resistant | > 128
CC1(C)S[C@@H]2[C@H](NC(=O)[C@H](N)c3ccccc3)C(=O)N2[C@H]1C(=O)O [Ampicillin] | 100 |  | 20 | highly resistant | 
CO[C@H]1/C=C/O[C@@]2(C)Oc3c(C)c(O)c4c(O)c(c(/C=N/N5CCN(C)CC5)c(O)c4c3C2=O)NC(=O)/C(C)=C\C=C\[C@H](C)[C@H](O)[C@@H](C)[C@@H](O)[C@@H](C)[C@H](OC(C)=O)[C@@H]1C [Rifampicin] | 80 |  | 16 |  | 4 to 32 (≈ 4.86 to 38.9 µM)
CN(C)[C@@H]1C(O)=C(C(N)=O)C(=O)[C@@]2(O)C(O)=C3C(=O)c4c(O)cccc4[C@@](C)(O)[C@H]3C[C@@H]12 [Tetracycline] | 100 |  | 20 |  | 
Gentamicin | 20 |  | 4 | majority was also resistant | 
